Laboratory results taken from patent publication US20050176826A1, “Use of asc-1 inhibitors to treat neurological and psychiatric disorders” (H. Lundbeck A/S, priority 2002, published 2005).

Assays:
[1] = target: T1, D-serine-sensitive Na+-independent transporter in rat cortical membranes (Rattus norvegicus, UniProt P63116); experiment: Na+-independent [3H]D-serine uptake into rat cortical membranes (synaptosomes); assay type: biochemical
T1 construct: from tissue; host or cells: rat cerebral cortex membranes (P2 synaptosomes), male Wistar rats
T1 sequence (P63116 1-530): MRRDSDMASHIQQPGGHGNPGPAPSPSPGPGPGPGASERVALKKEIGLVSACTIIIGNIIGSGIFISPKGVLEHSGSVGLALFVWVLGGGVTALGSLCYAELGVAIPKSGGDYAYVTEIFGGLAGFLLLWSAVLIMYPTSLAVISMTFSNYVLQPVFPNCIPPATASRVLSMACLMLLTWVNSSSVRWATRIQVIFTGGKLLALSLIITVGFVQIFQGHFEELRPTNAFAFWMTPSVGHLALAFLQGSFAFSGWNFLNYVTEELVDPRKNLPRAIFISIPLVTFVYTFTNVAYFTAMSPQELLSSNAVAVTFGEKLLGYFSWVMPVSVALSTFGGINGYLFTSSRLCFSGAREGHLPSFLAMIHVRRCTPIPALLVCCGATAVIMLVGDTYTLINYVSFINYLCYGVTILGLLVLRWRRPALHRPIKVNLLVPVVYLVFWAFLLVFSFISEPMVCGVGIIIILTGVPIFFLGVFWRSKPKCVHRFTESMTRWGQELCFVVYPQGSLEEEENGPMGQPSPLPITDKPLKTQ
T1 sequence (Q794F9 1-527 partner): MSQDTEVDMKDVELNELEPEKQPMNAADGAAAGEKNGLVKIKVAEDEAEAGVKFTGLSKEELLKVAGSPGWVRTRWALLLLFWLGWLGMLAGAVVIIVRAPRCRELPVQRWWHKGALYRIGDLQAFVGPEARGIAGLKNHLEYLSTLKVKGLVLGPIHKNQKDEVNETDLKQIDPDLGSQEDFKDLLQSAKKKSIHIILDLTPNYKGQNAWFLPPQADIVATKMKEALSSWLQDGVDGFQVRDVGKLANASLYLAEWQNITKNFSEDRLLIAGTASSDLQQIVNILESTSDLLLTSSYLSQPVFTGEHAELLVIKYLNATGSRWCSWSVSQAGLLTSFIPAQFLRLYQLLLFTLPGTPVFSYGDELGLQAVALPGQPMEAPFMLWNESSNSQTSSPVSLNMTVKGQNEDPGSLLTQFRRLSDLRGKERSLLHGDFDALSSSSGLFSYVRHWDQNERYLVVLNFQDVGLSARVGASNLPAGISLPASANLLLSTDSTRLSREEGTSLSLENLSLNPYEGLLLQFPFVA
Experimental: Into cortical membranes: Cortex from male Wistar rats (150-200 g) was homogenized in 0.40 M sucrose and centrifuged at 1000×g for 10 min. […] Test compounds and tissue (1 mg orig. tissue/well) were added to 96 well plates and incubated with [^3H]-D-serine (specific activity=26.8 Ci/mmol, PerkinElmer, Cambridge, U.K.) (100 nM final concentration) for 5 min at 25° C. Samples were filtered on Unifilter GF/B glass fiber (Packard Biosciences, Meriden, Conn., USA) and washed with 3×0.25 mL assay buffer. Measurements of [^3H]-D-serine uptake into whole HEK293 cells expressing human asc-1 were performed in 96 well plates with similar conditions except that the cells were incubated for 15 min with radioligand and washed by dipping twice in cold assay buffer following incubation with radioligand. Accumulated radioactivity was extracted from the cells by adding 200 μL scintillation fluid/well (Ultima Gold, Packard Biosciences) and the plates were counted in a Microplates Scintillation Counter (Packard Biosciences). The D-serine uptake in samples containing test compounds was compared to controls without added compound or controls where transport via the asc-1 was inhibited by addition of e.g. 30 mM L-alanine.

[2] = test system: rat brain (ventral hippocampus) extracellular amino acids; experiment: Microdialysis in rat ventral hippocampus, amino acid levels in dialysate; assay type: in vivo; conditions: 1 mM infused via microdialysis probe into ventral hippocampus, 140 min (FIG. 1)
Description: Rats (male wistar) were anaesthetized and intracerebral guide cannulas (CMA/12) were stereotaxically implanted into the brain positioning the dialysis probe tip in the ventral hippocampus (co-ordinates 5.6 mm […] to bregma, lateral −5.0 mm, 7.0 mm ventral to dura). The rats were allowed to recover from surgery for at least 2 days. On the day of the experiment, a microdialysis probe (CMA/12, 0.5 mm diameter, 3 mm length) was inserted through the guide cannula. The probes were connected via a dual channel swivel to a microinjection pump. Perfusion of the microdialysis probe with filtered Ringer solution (145 mM NaCl, 3 mM KCl, 1 mM MgCl2, 1.2 mM CaCl2) was begun shortly before insertion of the probe into the brain and continued for the duration of the experiment at a constant flow of 1 μl/min. After 165 min of stabilization, the experiments were initiated. A 20 min sampling regime was used throughout the experimental period. Time points were corrected for lag time of the perfusate from the microdialysis site to the probe outlet. The compound, S-methyl-L-cysteine (Sigma-Aldrich, St. Louis, USA) was dissolved in filtered Ringer solution (in 1 mM concentration) and was locally infused into the ventral hippocampus by reverse dialysis for 140 min (FIG. 1). After the experiments, the rats were sacrificed by decapitation. The brains were removed, frozen and sectioned (20 μm), and the position of the probes was verified. The concentrations of amino acids in the dialysates were analyzed by means of HPLC with fluorescence detection after precolumn online derivatisation with o-phatalaldehyde. The system consisted of a Hypersil AA-ODS column (5 μm, 2.1×200 mm, Agilent) with a Agilent 1100 fluoresence detector (excitation, 266-340 nm; emission, 305-340 nm). Mobile phases consisted of A: 20 mM sodium acetate, 0.018% triethylamine, 0.3% tetrahydrofuran, pH 7.2. B: 20 mM sodium acetate, 40% acetonitrile and 40% methanol, pH 7.2. The oven temperature was set at 40° C. and flow rate was 0.45 ml/min. Data were collected and analysed using ChemStation software (Agilent) after calibration with a range of standard amino acid solutions (0.1-10 μM). The mean value of 3 consecutive samples immediately preceding compound administration served as the basal level for each experiment and data were converted to percentage of basal (mean basal pre-injection values normalized to 100%).

CSCC(N)C(=O)O (stereo in doubt) [(S)-methyl-L-cysteine]
Ki [1]: 6.6 ± 1.8 µM | level of alanine in rat brain dialysate [2]: marked increase | level of aspartate in rat brain dialysate [2]: not affected | level of glutamate in rat brain dialysate [2]: not affected | level of glycine in rat brain dialysate [2]: marked increase | level of serine in rat brain dialysate [2]: marked increase | level of threonine in rat brain dialysate [2]: marked increase
